Test results from patent publication EP4772510A2, “BENZAZEPINONE COMPOUND AND USE THEREOF” (HANGZHOU BIO-SINCERITY PHARMA-TECHCO., LTD., priority 2023, dated 2025).

Legend:
HT-29 cells = experiment: Inhibition of TNF-α-induced necroptosis of HT-29 cells (SRB method); assay type: cell-based, human; conditions: Homo sapiens, HT-29, TNF-α 20 ng/mL + BV6 2 µM + Z-VAD-FMK 20 µM, 18 h
Excerpt: Example 57: Inhibition of TNF-α-Induced Necroptosis of HT-29 Cells by Compounds
• 1. Experimental reagents: McCOY's 5A culture medium, fetal bovine serum, penicillin-streptomycin, trypsin, PBS, TNF-α (MCE, HY-P7058), BV6 (MCE, HY-16701), Z-VAD-FMK (MCE, HY-16658B), SRB kit (Shanghai BestBio Biotechnology Co., Ltd., BB-4208-500T). • 2. Experimental instruments: medical low-temperature freezer (Thermo Fisher scientific, 902-ULTS), electrically heated thermostatic water bath (Shanghai Bluepard Instruments Co., Ltd., CD-420), low-speed centrifuge (ANHUI USTC Zonkia Scientific Instruments Co., Ltd, SC-3616), carbon dioxide incubator (Shanghai Bluepard Instruments Co., Ltd., BPN-150CH(UV)), inverted microscope (Olympus, CKX53), multi-functional microplate reader (Thermo Tecan, SPARK), class-II biosafety cabinet (AIRTECH, BSC-1304IIA2), and desktop cell counter (Thermo Fisher Scientific, Countess II). • 3. Cell culturing: HT-29 cells (human colon cancer cells) were cultured in a McCOY's 5A culture solution containing 10% fetal bovine serum and 1% penicillin-streptomycin solution in a 5% CO 2 at 37 °C and a saturated humidity, and culture medium changes and cell passaging were performed 3-4 times a week. • 4. […] The culture medium, trypsin, etc., were taken out from the freezer and transferred to the water bath for pre-heating. An appropriate amount of these substances was then taken for use. • (2) The old culture medium in the flask was aspirated using a sterile pipette and discarded, and the cells were washed 3 times with PBS. 1 mL of trypsin (25 cm^2 cell culture flask) was added into the flask, and the flask was gently shaken to allow the trypsin to cover all the cell surfaces. Digestion was performed in an incubator at 37 °C. After 2 min of digestion, the flask was placed under a microscope for observation. […] The mixture was gently pipetted using a pipette to homogenize the cells and thus prepare a single-cell suspension, and the cells were counted. • (5) The cells were diluted to 3 × 10^5/mL and seeded into a 96-well plate at 100 µL/well, such that there were 3 × 10^4 cells per well in the 96-well plate. The cells were incubated in a 5% CO2 incubator at 37 °C and a saturated humidity for 24 h, followed by the addition of compounds. • 4.2 Dilution and addition of compounds: • (1) TNF-α was dissolved in PBS to obtain a 100 µg/mL stock solution and aliquoted; Z-VAD-FMK was dissolved in DMSO to obtain a 10 mM stock solution and aliquoted; BV6 was dissolved in DMSO to obtain a 10 mM stock solution and aliquoted; GSK2982772 was dissolved in DMSO to obtain a 10 mM stock solution and aliquoted. One aliquot of each stock solution was stored at -20 °C for immediate use, while the remaining aliquots were stored at - 80 °C and used within their shelf life. • (2) McCOY's 5A culture solution containing TNF-α, BV6, and Z-VAD-FMK was prepared. For the positive control group and the test compound groups, the McCOY's 5A culture solution was added at 90 µL/well, and 10 µL of the culture medium containing the test compound was also added, thus making the final concentrations of TNF-α, BV6, and Z-VAD-FMK be 20 ng/mL, 2 µM, and 20 µM, respectively. For the DMSO (5‰) control group, 90 µL of the McCOY's 5A complete culture solution was added, and then 10 µL of DMSO was added, thus making the final concentration 5‰. • (3) Each target compound was three-fold diluted with a culture medium to 8 concentration gradients, with each concentration set in duplicate (10 µL/well). The final concentrations of each target compound were 1000.00/333.33/111.11/37.04/12.35/4.12/1.37/0.46 nM. • (4) The 96-well plate cultured for 24 h was taken out from the incubator, and the culture medium in the 96-well plate was carefully aspirated and discarded. A positive control group, test compound groups, and a DMSO (5‰) control group were set, and 10 µL of the corresponding compound was added to each group. […]

U937 cells = experiment: Inhibition of TNF-α-induced necroptosis of U937 cells (CCK-8 assay); assay type: cell-based, human; conditions: Homo sapiens, U-937, TNF-α 20 ng/mL + BV6 2 µM + Z-VAD-FMK 20 µM, 18 h
Excerpt: Example 56: Inhibition of TNF-α-Induced Necroptosis of U937 Cells by Compounds
• 1. Experimental reagents: RPMI-1640 culture medium, fetal bovine serum, penicillin-streptomycin, TNF-α (MCE, HY-P7058), BV6 (MCE, HY-16701), Z-VAD-FMK (MCE, HY-16658B), and CCK-8 (Dalian Meilun Biotech Co., Ltd., MA0218). • 2. Experimental instruments: medical low-temperature freezer (Thermo Fisher scientific, 902-ULTS), electrically heated thermostatic water bath (Shanghai Bluepard Instruments Co., Ltd., CD-420), low-speed centrifuge (ANHUI USTC Zonkia Scientific Instruments Co., Ltd, SC-3616), carbon dioxide incubator (Shanghai Bluepard Instruments Co., Ltd., BPN-150CH(UV)), inverted microscope (Olympus, CKX53), multi-functional microplate reader (Thermo Tecan, SPARK), class-II biosafety cabinet (AIRTECH, BSC-1304IIA2), and desktop cell counter (Thermo Fisher Scientific, Countess II). • 3. Cell culturing: U937 cells (human histiocytic lymphoma cells) were cultured in an RPMI-1640 culture solution containing 10% fetal bovine serum and 1% penicillin-streptomycin solution in a 5% CO2 incubator at 37 °C and a saturated humidity. The cell culture flask was vertically placed in the incubator. A T25 culture flask was used as an example, the culture solution in the flask was 6-8 mL, and culture medium changes and cell passaging were performed 3-4 times a week. • 4. […] The culture medium was taken out from the freezer and transferred to the water bath for pre-heating. An appropriate amount of culture medium was then taken for use. • (2) The cell suspension was transferred to a 15 mL sterile centrifuge tube and centrifuged at 850 rpm for 4 min to collect U937 cells. • (3) The supernatant was carefully discarded, and an appropriate amount of culture medium was added. The mixture was gently pipetted using a pipette to homogenize the cells and thus prepare a single-cell suspension, and the cells were counted. • (4) The cells were diluted to 4 × 10^5/mL and seeded into a 96-well plate at 90 µL/well, such that the cell density in the 96-well plate was 3.6 × 10 ^4 cells/well. The cells were incubated in a 5% CO 2 incubator at 37 °C and a saturated humidity for 6 h, followed by the addition of compounds. • 4.2 Dilution and addition of compounds: • (1) TNF-α was dissolved in PBS to obtain a 100 µg/mL stock solution and aliquoted; Z-VAD-FMK was dissolved in DMSO to obtain a 10 mM stock solution and aliquoted; BV6 was dissolved in DMSO to obtain a 10 mM stock solution and aliquoted; GSK2982772 was dissolved in DMSO to obtain a 10 mM stock solution and aliquoted. One aliquot of each stock solution was stored at -20 °C for immediate use, while the remaining aliquots were stored at - 80 °C and used within their shelf life. • (2) RPMI-1640 culture medium containing TNF-α, BV6, and Z-VAD-FMK was prepared (5 µL/per well), such that the final concentrations of TNF-α, BV6, and Z-VAD-FMK were 20 ng/mL, 2 µM, and 20 µM, respectively. • (3) Each target compound was three-fold diluted with a culture medium to 8 concentration gradients, with each concentration set in duplicate (5 µL/well). The final concentrations of each target compound were 1000.00/333.33/111.11/37.04/12.35/4.12/1.37/0.46 nM. • (4) The 96-well plate containing 90 µL of cell suspension was taken out from an incubator, and a positive control group, test compound groups, and a DMSO (5‰) control group were set. 5 µL of RPMI-1640 culture solution containing TNF-α, BV6, and Z-VAD-FMK and 5 µL of culture solution containing the test compound were added to the positive control group and the test compound groups. After compound addition, the mixtures were cultured for 18 h, followed by the CCK-8 assay. • (5) The 96-well plate was taken out, and the CCK-8 reagent was carefully added at 10 µL/well. The mixtures were incubated at 37 °C for 2-4 h, and the absorbance value was measured at a wavelength of 450 nm. • 5. Evaluation of inhibitory activity of compounds on TNF-α-induced necroptosis of U937 [formula] […]

Structure (SMILES) | EC50 (HT-29 cells) | EC50 (U937 cells)
O=C(NC1CCc2cc(C#Cc3ccncc3)cc3c2N(CC3)C1=O)c1nnc(Cc2c(Cl)cccc2Cl)[nH]1 (stereo not drawn) [Compound I-13, 5-(2,6-dichlorobenzyl)-N-(4-oxo-9-(pyridin-4-ylethynyl)-1,2,3,4,6,7-hexahydroazepino[3,2,1-hi]indol-3-yl)-4H-1,2,4-triazole-3-carboxamide] | > 200 nM | > 200 nM
Cn1cc(C#Cc2cc3c4c(c2)CCN4C(=O)C(NC(=O)c2cccc(Oc4ccccc4)n2)CC3)cn1 (stereo not drawn) [Compound V-1, N-(9-((1-methyl-1H-pyrazol-4-yl)ethynyl)-4-oxo-1,2,3,4,6,7-hexahydroazepino[3,2,1-hi]indol-3-yl)-6-phenoxypicolinamide] | > 200 nM | > 200 nM
Cn1cc(C#Cc2cc3c4c(c2)CCN4C(=O)C(NC(=O)c2ccc(Oc4ccccc4)cn2)CC3)cn1 (stereo not drawn) [Compound V-2, N-(9-((1-methyl-1H-pyrazol-4-yl)ethynyl)-4-oxo-1,2,3,4,6,7-hexahydroazepino[3,2,1-hi]indol-3-yl)-5-phenoxypicolinamide] | > 200 nM | > 200 nM
O=C(NC1CCc2ccc(C#Cc3ccccn3)c3c2N(CC3)C1=O)c1nnc(Cc2ccccc2)[nH]1 (stereo not drawn) [II-1, 5-benzyl-N-(4-oxo-8-(pyridin-2-ylethynyl)-1,2,3,4,6,7-hexahydroazepino[3,2,1-hi]indol-3-yl)-4H-1,2,4-triazole-3-carboxamide] | 10 to 100 nM | 10 to 100 nM
O=C(NC1CCc2ccc(C#Cc3cccnc3)c3c2N(CC3)C1=O)c1nnc(Cc2ccccc2)[nH]1 (stereo not drawn) [II-2, 5-benzyl-N-(4-oxo-8-(pyridin-3-ylethynyl)-1,2,3,4,6,7-hexahydroazepino[3,2,1-hi]indol-3-yl)-4H-1,2,4-triazole-3-carboxamide] | 10 to 100 nM | 100 to 200 nM
O=C(NC1CCc2ccc(C#CC3CC3)c3c2N(CC3)C1=O)c1nnc(Cc2ccccc2)[nH]1 (stereo not drawn) [II-3, 5-benzyl-N-(8-(cyclopropylethynyl)-4-oxo-1,2,3,4,6,7-hexahydroazepino[3,2,1-hi]indol-3-yl)-4H-1,2,4-triazole-3-carboxamide] | 100 to 200 nM | > 200 nM
O=C(NC1CCc2ccc(C#Cc3ccncc3)c3c2N(CC3)C1=O)c1nnc(Cc2ccccc2)[nH]1 (stereo not drawn) [II-4, 5-benzyl-N-(4-oxo-8-(pyridin-4-ylethynyl)-1,2,3,4,6,7-hexahydroazepino[3,2,1-hi]indol-3-yl)-4H-1,2,4-triazole-3-carboxamide] | 100 to 200 nM | 10 to 100 nM
O=C(NC1CCc2cc(C#Cc3ccncc3)cc3c2N(CC3)C1=O)c1ncn(Cc2c(F)cccc2F)n1 (stereo not drawn) [III-2, 1-(2,6-difluorobenzyl)-N-(4-oxo-9-(pyridin-4-ylethynyl)-1,2,3,4,6,7-hexahydroazepino[3,2,1-hi]indol-3-yl)-1H-1,2,4-triazole-3-carboxamide] | 10 to 100 nM | < 5 nM
O=C(NC1CCc2cc(C#Cc3ccncc3)cc3c2N(CC3)C1=O)c1ncn(Cc2ccccc2)n1 (stereo not drawn) [III-3, 1-benzyl-N-(4-oxo-9-(pyridin-4-ylethynyl)-1,2,3,4,6,7-hexahydroazepino[3,2,1-hi]indol-3-yl)-1H-1,2,4-triazole-3-carboxamide] | 10 to 100 nM | 10 to 100 nM
CC(C)(O)C#Cc1cc2c3c(c1)CCN3C(=O)C(NC(=O)c1ncn(Cc3c(F)cccc3F)n1)CC2 (stereo not drawn) [III-4, 1-(2,6-difluorobenzyl)-N-(9-(3-hydroxy-3-methylbut-1-yn-1-yl)-4-oxo-1,2,3,4,6,7-hexahydroazepino[3,2,1-hi]indol-3-yl)-1H-1,2,4-triazole-3-carboxamide] | < 5 nM | < 5 nM
COCC#Cc1cc2c3c(c1)CCN3C(=O)C(NC(=O)c1ncn(Cc3c(F)cccc3F)n1)CC2 (stereo not drawn) [III-5, 1-(2,6-difluorobenzyl)-N-(9-(3-methoxyprop-1-yn-1-yl)-4-oxo-1,2,3,4,6,7-hexahydroazepino[3,2,1-hi]indol-3-yl)-1H-1,2,4-triazole-3-carboxamide] | < 5 nM | < 5 nM
O=C(NC1CCc2cc(C#CC3CC3)cc3c2N(CC3)C1=O)c1ncn(Cc2c(F)cccc2F)n1 (stereo not drawn) [III-6, N-(9-(cyclopropylethynyl)-4-oxo-1,2,3,4,6,7-hexahydroazepino[3,2,1-hi]indol-3-yl)-1-(2,6-difluorobenzyl)-1H-1,2,4-triazole-3-carboxamide] | 5 to 10 nM | 10 to 100 nM
